Test results as given in article PMC7115413 (European Journal of Medicinal Chemistry, 2016).

Assays:
[1] = Cytotoxicity test; assay type: cell-based; details: human, TZM-bl cells
[2] = Solubility in water; assay type: physicochemical

## enfuvirtide
[1]
  CC50: > 100 µM
[2]
  aqueous solubility (in words): negligible
